Reference: article PMC13340911 (Archives of biochemistry and biophysics, 2025)
Substitutions are numbered along the chain they refer to.

What was measured:
Nocturnin (NOCT) [1] = target: T1, Nocturnin (NOCT) (Homo sapiens, UniProt Q9UK39, H414N); assay: NADPH intrinsic fluorescence titration; type: binding
T1 sequence (Q9UK39 122-431 H414N): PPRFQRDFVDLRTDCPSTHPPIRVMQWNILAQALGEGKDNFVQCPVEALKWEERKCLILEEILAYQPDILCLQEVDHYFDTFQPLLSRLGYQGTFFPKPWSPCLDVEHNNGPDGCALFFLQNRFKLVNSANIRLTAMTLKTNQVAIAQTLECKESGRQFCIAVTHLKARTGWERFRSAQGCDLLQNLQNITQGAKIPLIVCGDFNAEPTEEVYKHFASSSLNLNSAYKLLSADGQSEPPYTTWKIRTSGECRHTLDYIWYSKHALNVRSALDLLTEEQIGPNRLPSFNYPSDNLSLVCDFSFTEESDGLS

Nocturnin (NOCT) [2] = target: T2, Nocturnin (NOCT) (Homo sapiens, UniProt Q9UK39, N149A); assay: NADPH intrinsic fluorescence titration; type: binding
T2 sequence (Q9UK39 122-431 N149A): T1 sequence (Q9UK39 122-431 H414N) with N28A, N293H

Nocturnin (NOCT) [3] = target: T3, Nocturnin (NOCT) (Homo sapiens, UniProt Q9UK39, H286N); assay: NADPH intrinsic fluorescence titration; type: binding
T3 sequence (Q9UK39 122-431 H286N): T1 sequence (Q9UK39 122-431 H414N) with H165N, N293H

Nocturnin (NOCT) [4] = target: T4, Nocturnin (NOCT) (Homo sapiens, UniProt Q9UK39); assay: NADPH intrinsic fluorescence titration; type: binding
T4 sequence (Q9UK39 122-431): T1 sequence (Q9UK39 122-431 H414N) with N293H

Nocturnin (NOCT) [5] = target: T4, Nocturnin (NOCT); assay: steady-state phosphatase kinetics of purified NOCT; type: biochemical

| Kd (Nocturnin (NOCT) [1]) [µM] | Kd (Nocturnin (NOCT) [2]) [µM] | Kd (Nocturnin (NOCT) [3]) [µM] | Kd (Nocturnin (NOCT) [4]) [µM] | steady-state phosphatase kinetics of purified NOCT (malachite green); value is k (Nocturnin (NOCT) [5]) | SMILES |
| --- | --- | --- | --- | --- | --- |
| 338 | 473 | 219 | 308 | – | NC(=O)C1=CN([C@@H]2O[C@H](COP(=O)(O)OP(=O)(O)OC[C@H]3O[C@@H](n4cnc5c(N)ncnc54)[C@H](OP(=O)(O)O)[C@@H]3O)[C@@H](O)[C@H]2O)C=CC1 [NADPH] |
| – | – | – | – | 78 | NC(=O)c1ccc[n+]([C@@H]2O[C@H](COP(=O)(O)OP(=O)(O)OC[C@H]3O[C@@H](n4cnc5c(N)ncnc54)[C@H](OP(=O)(O)O)[C@@H]3O)[C@@H](O)[C@H]2O)c1 [NADP^+] |
